Assay results: patent US9012655B2, “Antimicrobial/adjuvant compounds and methods” (Denouamed, Inc., priority 2011, dated 2015)
Values after ≈ are worked out from the molar mass of the structure shown.

Columns and labels:
Assay type in all cases: cell-based
E. coli D22 = assay: MIC, NCCLS M7-A6 broth microdilution, E. coli D22; conditions: Escherichia coli, D22, 16 to 20 h, 35 degrees Celsius
Procedure, shortened: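 Broth microdilution per NCCLS M7-A6 in cation-adjusted Mueller-Hinton broth, doubling dilutions, inoculum 5×10^5 CFU/mL, DMSO controls included. Read after 16–20 h at 35 °C in ambient air; MIC is lowest concentration preventing visible growth.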

[1] = tested on: Staphylococcus epidermidis NRS7; assay: MIC panel of challenge pathogens (CLSI); conditions: Staphylococcus epidermidis NRS7; for MIC: read-out: 100% inhibition; for MIC50: read-out: MIC50 (50%); for MIC80: read-out: MIC80 (80%)
Procedure, shortened: (§1)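 Broth microdilution per CLSI guidelines. Final inoculum 2-8×10^5 CFU/ml, compounds serially two-fold diluted from 128 mg/L top concentration. Incubated in the dark at 30-37° C for 24-48 h, aerobic or anaerobic as appropriate. MIC read visually as 100% inhibition endpoint; MIC50 and MIC80 also reported.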

[2] = tested on: Staphylococcus aureus NRS384; assay: MIC panel of challenge pathogens (CLSI); conditions: Staphylococcus aureus NRS384; for MIC: read-out: 100% inhibition; for MIC50: read-out: MIC50 (50%); for MIC80: read-out: MIC80 (80%)
Procedure, shortened: as §1

[3] = tested on: Staphylococcus aureus NRS2 (ATCC700698); assay: MIC panel of challenge pathogens (CLSI); conditions: Staphylococcus aureus NRS2 (ATCC700698); for MIC: read-out: 100% inhibition; for MIC50: read-out: MIC50 (50%); for MIC80: read-out: MIC80 (80%)
Procedure, shortened: as §1

[4] = tested on: Enterococcus faecalis ATCC29212; assay: MIC panel of challenge pathogens (CLSI); conditions: Enterococcus faecalis ATCC29212; for MIC: read-out: 100% inhibition; for MIC50: read-out: MIC50 (50%); for MIC80: read-out: MIC80 (80%)
Procedure, shortened: as §1

[5] = tested on: Staphylococcus aureus NRS1 (ATCC700699); assay: MIC panel of challenge pathogens (CLSI); conditions: Staphylococcus aureus NRS1 (ATCC700699); for MIC: read-out: 100% inhibition; for MIC50: read-out: MIC50 (50%); for MIC80: read-out: MIC80 (80%)
Procedure, shortened: as §1

[6] = tested on: Staphylococcus epidermidis NRS122; assay: MIC panel of challenge pathogens (CLSI); conditions: Staphylococcus epidermidis NRS122; for MIC: read-out: 100% inhibition; for MIC50: read-out: MIC50 (50%); for MIC80: read-out: MIC80 (80%)
Procedure, shortened: as §1

[7] = tested on: Staphylococcus aureus AUR60 7005; assay: MIC panel of challenge pathogens (CLSI); conditions: AUR607005, Staphylococcus aureus AUR60 7005; for MIC: read-out: 100% inhibition; for MIC50: read-out: MIC50 (50%); for MIC80: read-out: MIC80 (80%)
Procedure, shortened: as §1

[8] = tested on: Staphylococcus aureus NRS383; assay: MIC panel of challenge pathogens (CLSI); conditions: Staphylococcus aureus NRS383; for MIC: read-out: 100% inhibition; for MIC50: read-out: MIC50 (50%); for MIC80: read-out: MIC80 (80%)
Procedure, shortened: as §1

[9] = tested on: Staphylococcus aureus AUR59 7005; assay: MIC panel of challenge pathogens (CLSI); conditions: AUR597005, Staphylococcus aureus AUR59 7005; for MIC: read-out: 100% inhibition; for MIC50: read-out: MIC50 (50%); for MIC80: read-out: MIC80 (80%)
Procedure, shortened: as §1

[10] = tested on: Staphylococcus aureus AUR131 007035; assay: MIC panel of challenge pathogens (CLSI); conditions: AUR131007035, Staphylococcus aureus AUR131 007035; for MIC: read-out: 100% inhibition; for MIC50: read-out: MIC50 (50%); for MIC80: read-out: MIC80 (80%)
Procedure, shortened: as §1

[11] = tested on: Enterococcus faecium ATCC700221; assay: MIC panel of challenge pathogens (CLSI); conditions: Enterococcus faecium ATCC700221; for MIC: read-out: 100% inhibition; for MIC50: read-out: MIC50 (50%); for MIC80: read-out: MIC80 (80%)
Procedure, shortened: as §1

Ps. aeruginosa = assay: Combination MICs for antibiotic adjuvant potential; conditions: compound at 30 μM
Protocol: (§2) Susceptibilities to the compounds were determined using the National Committee for Clinical Laboratory Standards (NCCLS) M7-A6 broth microdilution method. Cation-adjusted Mueller-Hinton broth (Ca^2+, 25 μg/mL; Mg^2+, 12.5 μg/mL) microdilution panels were prepared to contain antimicrobial doubling dilution concentrations of an appropriate range. DMSO (dimethylsulfoxide) controls were incorporated into the panel to mimic the quantity of DMSO used in dissolving some of the compounds at the higher concentrations. Each final panel well volume was 100 μL with a bacterial inoculum of 5×10^5 CFU (colony forming units)/mL of the relevant bacterium. Panels were read following 16 to 20 h of incubation at 35 degrees Celsius in ambient air. The MIC (minimum inhibitory concentration) was defined as the lowest concentration of antimicrobial inhibiting visible growth.
Generally following the procedure of Example 9, MICs of ampicillin, erythromycin, and azithromycin were determined against Ps. aeruginosa. Parallel to this effort, solutions were prepared which were identical. To each of these were added 0.5 μL of stock solution of a given compound of the present invention, then diluted to produce a final concentration of 125 μM, 60 μM, and/or 30 μM for determination of adjuvant activity. Compounds were determined to be antibiotic adjuvants if the mixture produced a lower MIC than that of the antibiotic agent alone.

[12] = tested on: Streptococcus pneumoniae Group A; assay: MIC against Streptococcus pneumoniae Group A; conditions: initial measurement, Todd Hewitt broth
Protocol: as §2
Generally following the procedure of Example 9, but using Todd Hewitt broth (beef heart digest) rather than Mueller-Hinton broth, MICs were initially measured against Streptococcus pneumoniae Group A for compounds of the present invention as follows: […]

| Structure (SMILES) | MIC (E. coli D22) | MIC [1] | MIC50 [1] | MIC80 [1] | MIC [2] | MIC50 [2] | MIC80 [2] | MIC [3] | MIC50 [3] | MIC80 [3] | MIC [4] | MIC50 [4] | MIC80 [4] | MIC [5] | MIC50 [5] | MIC80 [5] | MIC [6] | MIC50 [6] | MIC80 [6] | MIC [7] | also measured |
| --- | --- | --- | --- | --- | --- | --- | --- | --- | --- | --- | --- | --- | --- | --- | --- | --- | --- | --- | --- | --- | --- |
| Cc1ccc(Cl)cc1-c1cc(-c2nnn[nH]2)sc1-c1cc(Cl)ccc1C [DNM0508, 5-(4,5-Bis(5-chloro-2-methylphenyl)thiophen-2-yl)-1H-tetrazole] | > 125 µM | 1 µg/mL (≈ 2.49 µM) | 0.5 µg/mL (≈ 1.25 µM) | 0.5 µg/mL (≈ 1.25 µM) | 1 µg/mL (≈ 2.49 µM) | 1 µg/mL (≈ 2.49 µM) | 1 µg/mL (≈ 2.49 µM) | 1 µg/mL (≈ 2.49 µM) | 0.5 µg/mL (≈ 1.25 µM) | 1 µg/mL (≈ 2.49 µM) | 2 µg/mL (≈ 4.98 µM) | 2 µg/mL (≈ 4.98 µM) | 2 µg/mL (≈ 4.98 µM) | 1 µg/mL (≈ 2.49 µM) | 0.5 µg/mL (≈ 1.25 µM) | 1 µg/mL (≈ 2.49 µM) | 8 µg/mL (≈ 19.9 µM) | 4 µg/mL (≈ 9.97 µM) | 8 µg/mL (≈ 19.9 µM) | 1 µg/mL (≈ 2.49 µM) | MIC50 [7]: 1 µg/mL (≈ 2.49 µM); MIC80 [7]: 1 µg/mL (≈ 2.49 µM); MIC [8]: 1 µg/mL (≈ 2.49 µM); MIC50 [8]: 1 µg/mL (≈ 2.49 µM); MIC80 [8]: 1 µg/mL (≈ 2.49 µM); MIC [9]: 1 µg/mL (≈ 2.49 µM); MIC50 [9]: 1 µg/mL (≈ 2.49 µM); MIC80 [9]: 1 µg/mL (≈ 2.49 µM); MIC [10]: 1 µg/mL (≈ 2.49 µM); MIC50 [10]: 1 µg/mL (≈ 2.49 µM); MIC80 [10]: 1 µg/mL (≈ 2.49 µM); MIC [11]: 1 µg/mL (≈ 2.49 µM); MIC50 [11]: 1 µg/mL (≈ 2.49 µM); MIC80 [11]: 1 µg/mL (≈ 2.49 µM) |
| Fc1ccc(-c2cc(-c3nnn[nH]3)sc2-c2ccc(F)c3ccccc23)c2ccccc12 [DNM0537, 5-(4,5-Bis(4-fluoronaphthalen-1-yl)thiophen-2-yl)-1H-tetrazole] | 125 µM (≈ 55.1 µg/mL) | 1 µg/mL (≈ 2.27 µM) | 0.5 µg/mL (≈ 1.14 µM) | 1 µg/mL (≈ 2.27 µM) | ≤ 0.25 µg/mL | ≤ 0.25 µg/mL | ≤ 0.25 µg/mL | 1 µg/mL (≈ 2.27 µM) | 1 µg/mL (≈ 2.27 µM) | 1 µg/mL (≈ 2.27 µM) | 1 µg/mL (≈ 2.27 µM) | 0.5 µg/mL (≈ 1.14 µM) | 1 µg/mL (≈ 2.27 µM) | ≤ 0.25 µg/mL | ≤ 0.25 µg/mL | ≤ 0.25 µg/mL | 4 µg/mL (≈ 9.08 µM) | 4 µg/mL (≈ 9.08 µM) | 4 µg/mL (≈ 9.08 µM) | ≤ 0.25 µg/mL | fold lower MIC for erythromycin (Ps. aeruginosa): ≤ 7 fold; MIC50 [7]: ≤ 0.25 µg/mL; MIC80 [7]: ≤ 0.25 µg/mL; MIC [8]: ≤ 0.25 µg/mL; MIC50 [8]: ≤ 0.25 µg/mL; MIC80 [8]: ≤ 0.25 µg/mL; MIC [9]: ≤ 0.25 µg/mL; MIC50 [9]: ≤ 0.25 µg/mL; MIC80 [9]: ≤ 0.25 µg/mL; MIC [10]: ≤ 0.25 µg/mL; MIC50 [10]: ≤ 0.25 µg/mL; MIC80 [10]: ≤ 0.25 µg/mL; MIC [11]: 0.5 µg/mL (≈ 1.14 µM); MIC50 [11]: 0.5 µg/mL (≈ 1.14 µM); MIC80 [11]: 0.5 µg/mL (≈ 1.14 µM) |
| Cc1cc(Cl)ccc1-c1cc(-c2nnn[nH]2)sc1-c1ccc(C)c2ccccc12 [DNM0576, 5-(4-(4-Chloro-2-methylphenyl)-5-(4-methylnaphthalen-1-yl)thiophen-2-yl)-1H-tetrazole] | > 125 µM | 0.5 µg/mL (≈ 1.2 µM) | 0.25 µg/mL (≈ 0.6 µM) | 0.5 µg/mL (≈ 1.2 µM) | 0.5 µg/mL (≈ 1.2 µM) | 0.5 µg/mL (≈ 1.2 µM) | 0.5 µg/mL (≈ 1.2 µM) | 0.5 µg/mL (≈ 1.2 µM) | 0.5 µg/mL (≈ 1.2 µM) | 0.5 µg/mL (≈ 1.2 µM) | 1 µg/mL (≈ 2.4 µM) | 1 µg/mL (≈ 2.4 µM) | 1 µg/mL (≈ 2.4 µM) | 0.5 µg/mL (≈ 1.2 µM) | 0.25 µg/mL (≈ 0.6 µM) | 0.5 µg/mL (≈ 1.2 µM) | 2 µg/mL (≈ 4.8 µM) | 2 µg/mL (≈ 4.8 µM) | 2 µg/mL (≈ 4.8 µM) | 0.5 µg/mL (≈ 1.2 µM) | MIC [12]: 0.5 µM (≈ 0.208 µg/mL); MIC50 [7]: 0.5 µg/mL (≈ 1.2 µM); MIC80 [7]: 0.5 µg/mL (≈ 1.2 µM); MIC [8]: 0.5 µg/mL (≈ 1.2 µM); MIC50 [8]: 0.5 µg/mL (≈ 1.2 µM); MIC80 [8]: 0.5 µg/mL (≈ 1.2 µM); MIC [9]: 0.5 µg/mL (≈ 1.2 µM); MIC50 [9]: 0.5 µg/mL (≈ 1.2 µM); MIC80 [9]: 0.5 µg/mL (≈ 1.2 µM); MIC [10]: 0.5 µg/mL (≈ 1.2 µM); MIC50 [10]: 0.5 µg/mL (≈ 1.2 µM); MIC80 [10]: 0.5 µg/mL (≈ 1.2 µM); MIC [11]: 0.5 µg/mL (≈ 1.2 µM); MIC50 [11]: 0.25 µg/mL (≈ 0.6 µM); MIC80 [11]: 0.25 µg/mL (≈ 0.6 µM) |
